Measured values published in paper PMC4601640, “Stability of the Human Hsp90-p50^Cdc37 Chaperone Complex against Nucleotides and Hsp90 Inhibitors, and the Influence of Phosphorylation by Casein Kinase 2” (Molecules, 2015).
“Also recorded” adds a separate entry of the source.

Experiments:
Hsp90-p50^Cdc37 = biological target: T1, Hsp90-p50^Cdc37 (Homo sapiens, UniProt P08238); assay: ELISA complex formation, immobilized GST-p50^Cdc37 and Hsp90β, unphosphorylated; type: binding
T1 construct: The gene encoding human full-length Hsp90β was subcloned from T47D cell line cDNA; made in house; host or cells: E. coli BL21 Star (DE3) (Hsp90β); E. coli BL21 (DE3) (GST-p50Cdc37)

ΔHsp90-p50^Cdc37 = biological target: T2, ΔHsp90-p50^Cdc37 (Homo sapiens, UniProt P08238, DEL220-271/E274G/I272G/K273G/K275G); assay: ELISA complex formation, ΔHsp90; type: binding
T2 construct: human Hsp90β (1-724 Δ220-275); made in house; host or cells: E. coli BL21 Star (DE3) (ΔHsp90β); E. coli BL21 (DE3) (GST-p50Cdc37)
T2 sequence (P08238 with tags, fused parts or gaps DEL220-271/I272G/K273G/E274G/K275G): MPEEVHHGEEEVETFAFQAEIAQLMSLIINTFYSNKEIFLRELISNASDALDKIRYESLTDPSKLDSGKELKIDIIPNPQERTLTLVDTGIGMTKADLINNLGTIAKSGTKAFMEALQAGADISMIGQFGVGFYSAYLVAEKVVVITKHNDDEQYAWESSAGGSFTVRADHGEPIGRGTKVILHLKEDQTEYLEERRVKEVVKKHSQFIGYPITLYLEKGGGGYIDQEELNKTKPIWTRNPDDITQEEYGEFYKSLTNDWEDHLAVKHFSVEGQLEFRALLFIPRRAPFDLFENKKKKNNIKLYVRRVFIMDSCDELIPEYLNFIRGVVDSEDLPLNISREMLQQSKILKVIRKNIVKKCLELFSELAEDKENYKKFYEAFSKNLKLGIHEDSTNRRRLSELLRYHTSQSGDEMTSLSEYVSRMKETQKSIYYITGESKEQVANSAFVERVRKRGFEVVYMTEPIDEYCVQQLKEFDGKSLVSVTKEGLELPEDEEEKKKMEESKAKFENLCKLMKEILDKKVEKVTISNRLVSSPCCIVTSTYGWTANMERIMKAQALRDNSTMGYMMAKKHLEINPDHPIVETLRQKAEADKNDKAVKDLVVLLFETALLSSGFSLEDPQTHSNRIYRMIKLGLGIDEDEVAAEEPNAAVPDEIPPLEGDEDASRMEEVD

(p)Hsp90-p50^Cdc37 = (p)Hsp90-p50^Cdc37 (Homo sapiens, UniProt P08238); assay: ELISA complex formation, CK2-phosphorylated Hsp90β
(p)Hsp90-p50^Cdc37, sequence (P08238 whole entry): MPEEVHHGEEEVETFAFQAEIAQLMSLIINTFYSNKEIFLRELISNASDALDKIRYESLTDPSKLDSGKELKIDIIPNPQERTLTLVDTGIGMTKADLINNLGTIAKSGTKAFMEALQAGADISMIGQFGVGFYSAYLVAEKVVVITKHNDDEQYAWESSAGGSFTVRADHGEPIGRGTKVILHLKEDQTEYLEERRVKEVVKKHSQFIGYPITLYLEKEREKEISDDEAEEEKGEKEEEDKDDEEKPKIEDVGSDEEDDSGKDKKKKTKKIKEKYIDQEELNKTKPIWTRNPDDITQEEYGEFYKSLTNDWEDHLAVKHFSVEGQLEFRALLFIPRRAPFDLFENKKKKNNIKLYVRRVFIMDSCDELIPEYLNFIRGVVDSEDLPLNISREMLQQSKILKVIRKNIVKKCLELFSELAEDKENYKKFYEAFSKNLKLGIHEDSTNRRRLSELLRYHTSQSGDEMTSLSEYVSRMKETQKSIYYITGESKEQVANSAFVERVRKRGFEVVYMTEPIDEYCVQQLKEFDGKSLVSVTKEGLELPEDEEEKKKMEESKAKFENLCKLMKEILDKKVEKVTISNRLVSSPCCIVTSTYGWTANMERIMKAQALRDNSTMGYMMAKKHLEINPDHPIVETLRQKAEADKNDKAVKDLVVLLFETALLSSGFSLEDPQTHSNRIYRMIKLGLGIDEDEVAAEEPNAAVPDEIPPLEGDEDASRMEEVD
Description: (§2) Phosphorylation of full-length Hsp90β and p50^Cdc37 was performed using purified full-length CK2α. The reaction was carried out in a 2.5 mL volume containing 50 µM Hsp90β or p50^Cdc37, 0.5 µM CK2α, 0.5 mM ATP, 20 mM Tris (pH 7.5), 50 mM KCl, and 10 mM MgCl2, and was incubated for 1 h at 30 °C. Samples were removed for analysis of phosphorylation status, and the proteins were re-buffered into 50 mM HEPES (pH 7.5), 150 mM NaCl, and 1 mM DTT (ELISA), or into 50 mM HEPES (pH 7.5) for ITC, using PD-10 gravity columns (GE Healthcare). Dephosphorylation was performed using 2.5 units of FastAP (alkaline phosphatase from Thermo Scientific) in buffer containing 10 mM Tris (pH 8.0 at 37 °C), 5 mM MgCl2, 100 mM KCl, 0.02% Triton-X 100, and 0.5 mg/mL BSA for 1 h at 37 °C.
(§3) Purified GST-p50^Cdc37 (4 µM) or control (purified GST alone, 4 µM) was added to glutathione-coated 96-well plates (Pierce) in 100 μL protein buffer (50 mM HEPES, pH 7.5, 150 mM NaCl, 10 mM MgCl2, 0.05% Tween-20, and 0.1% BSA) and incubated for 1 h at room temperature (triplicate wells per sample). […] The mixtures were then added to the wells (100 μL per well, in triplicates) and incubated for 1 h at room temperature before washing. The wells were incubated with anti-His6-tag mAb (1 mg/mL stock, Abcam), diluted 1:2000 in antibody buffer (50 mM HEPES pH 7.5, 150 mM NaCl, 10 mM MgCl2, 0.05% Tween-20, and 1% BSA) for 1 h, followed by secondary antibody (horse anti-mouse HRP-conjugated IgG, Cell Signaling Technology), diluted 1:5000 in antibody buffer, for 1.5 h at room temperature. After washing three times with 1× HBS-T and two times with 1× HBS, 200 μL HRP substrate (SigmaFast OPD) was added per well. The plates were incubated at room temperature, and the absorbance was read at 450 nm after 15 min and 30 min using a SpectraMax 340 PC plate reader (Molecular Devices). For dose-response measurements, absorption values were corrected for unspecific binding of Hsp90 to immobilized GST, and the raw data were fit to equation (1), where f(I) is the fraction of complex remaining, [I] is the concentration of the inhibitor, IC50 is the half maximal inhibitory concentration against Hsp90-p50^Cdc37 complex formation, n is the Hill slope coefficient, min is the signal remaining at high inhibitor concentrations and max is the signal of the uninhibited complex. Corrected absorption values (ΔOD) for the uninhibited Hsp90-p50^Cdc37 complex (unphosphorylated and phosphorylated) were in the range of 0.4–1.0. Data were expressed relative to the respective max value of Equation (1). (1) f(I)=min+(max−min)/1+([I]/IC50)^n

[1] = biological target: T3, ΔHsp90β interaction with GST-p50^Cdc37 (Homo sapiens, UniProt P08238, DEL220-271/E274G/I272G/K273G/K275G); assay: GST pull-down of ΔHsp90β with GST-p50^Cdc37; type: binding
T3 construct: human Hsp90β (1-724 Δ220-275); made in house; host or cells: E. coli BL21 Star (DE3) (ΔHsp90β); E. coli BL21 (DE3) (GST-p50Cdc37)
T3 sequence (P08238 with tags, fused parts or gaps DEL220-271/I272G/K273G/E274G/K275G): as the sequence (P08238 with tags, fused parts or gaps DEL220-271/I272G/K273G/E274G/K275G) above
Description: GST pull-down experiments were carried out using 1 mL GST 4 FastFlow resin in 8 mL Flex columns (Kontes). All experiments were performed at room temperature by gravity flow. Loading and wash buffers contained 50 mM Tris pH 8, 50 mM KCl, 5 mM MgCl2, and 5% DMSO. The elution buffer contained an additional 10 mM reduced glutathione. […] The resin was washed with 20 CV wash buffer, and samples were eluted with 2 CV elution buffer. Eluted protein was analysed on 12% SDS-PAGE stained with Coomassie blue for visualization.

hHsp90β-FL = biological target: T4, hHsp90β-FL (Homo sapiens, UniProt P08238); assay: ITC direct binding to full-length Hsp90β; settings: Figure 3
T4 construct: The gene encoding human full-length Hsp90β was subcloned from T47D cell line cDNA; His6 (N); made in house; host or cells: E. coli BL21 Star (DE3)
Description: (§1) Binding of p50^Cdc37 and small molecules to Hsp90 was analyzed using a MicroCal iTC200 titration calorimeter (GE Healthcare). Compounds or p50^Cdc37 were titrated into a solution of Hsp90 using the following concentrations: p50^Cdc37 (200 µM) into Hsp90 (20 µM), nucleotides (600 µM) into Hsp90 (30 µM), inhibitors (300 µM) into Hsp90 (30 µM). […] All experiments were conducted in 50 mM HEPES pH 7.5, 10 mM MgCl2 at 30 °C. For titration of inhibitors, the buffer contained 5% DMSO. […] Generation of heat due to dilution was determined in separate experiments by diluting protein into buffer and subtracting these as blank values for each injection. Corrected heat values were fitted using a nonlinear least squares curve-fitting algorithm (Microcal Origin 7.0) to obtain the stoichiometry (n), binding constants (Ka, Kd), and change in enthalpy for each enzyme-ligand interaction (ΔH).

(p)Hsp90-(p)p50^Cdc37 = (p)Hsp90-(p)p50^Cdc37 (Homo sapiens, UniProt P08238); assay: biochemical
(p)Hsp90-(p)p50^Cdc37, sequence (P08238 whole entry, the tested form may be a part): as the sequence (P08238 whole entry) above
Description: as §2, §3

hHsp90β-N = biological target: T5, hHsp90β-N (Homo sapiens, UniProt P08238); assay: ITC direct binding to N-terminal domain of Hsp90β; settings: 30 °C, read-out: Observed Kd
T5 construct: human N-terminal Hsp90β (1-219, denoted Hsp90β-N); His6 (N); made in house; host or cells: E. coli BL21 Star (DE3)
T5 sequence (P08238 1-219): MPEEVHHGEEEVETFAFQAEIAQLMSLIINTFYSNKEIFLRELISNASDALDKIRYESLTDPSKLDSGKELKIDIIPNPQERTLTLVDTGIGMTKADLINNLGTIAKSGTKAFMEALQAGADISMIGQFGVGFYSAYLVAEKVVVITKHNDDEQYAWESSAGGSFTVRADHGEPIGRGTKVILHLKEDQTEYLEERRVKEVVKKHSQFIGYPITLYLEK
From the text: The gene encoding human full-length Hsp90β was subcloned from T47D cell line cDNA, and human full-length CK2α was subcloned from MCF7 cell line cDNA, both a kind gift from Dr. Jonathan Lancaster, Moffitt Cancer Center. The genes encoding the deletion mutants human Hsp90α (1-732 Δ226-283), human Hsp90β (1-724 Δ220-275), human N-terminal Hsp90β (1-219, denoted Hsp90β-N), and human full-length p50^Cdc37 (residues 1-378) were synthesized by GeneArt AG with optimized codon usage for E. coli expression. The deleted sections in the two Hsp90 genes were each replaced by four glycine residues. […]
Binding of p50^Cdc37 and small molecules to Hsp90 was analyzed using a MicroCal iTC200 titration calorimeter (GE Healthcare). […] Typically, an initial 0.5 µL injection was followed by 19 injections of 2.2 µL of syringe solution (compound or p50^Cdc37) into a 200 µL protein solution of Hsp90 constantly stirred at 1000 rpm, and data were recorded for 180 s between injections. Generation of heat due to dilution was determined in separate experiments by diluting protein into buffer and subtracting these as blank values for each injection. […]

yHsp82-FL = yHsp82-FL with human p50^Cdc37; ref [30]; read-out: Reported Kd; cited from earlier work
hΔHsp90β = biological target: T6, hΔHsp90β (Homo sapiens, UniProt P08238, DEL220-271/E274G/I272G/K273G/K275G); assay: ITC direct binding to Hsp90β deletion mutant lacking the charged linker; settings: 50 mM HEPES pH 7.5, 10 mM MgCl2, 30 °C, read-out: Observed Kd
T6 construct: human Hsp90β (1-724 Δ220-275); His6 (N); made in house; host or cells: E. coli BL21 Star (DE3)
T6 sequence (P08238 with tags, fused parts or gaps DEL220-271/I272G/K273G/E274G/K275G): as the sequence (P08238 with tags, fused parts or gaps DEL220-271/I272G/K273G/E274G/K275G) above
From the text: The gene encoding human full-length Hsp90β was subcloned from T47D cell line cDNA, and human full-length CK2α was subcloned from MCF7 cell line cDNA, both a kind gift from Dr. Jonathan Lancaster, Moffitt Cancer Center. […] The deleted sections in the two Hsp90 genes were each replaced by four glycine residues. Hsp90α and Hsp90β were subcloned into the pET28a vector (Novagen), and p50^Cdc37 was subcloned into a modified pET28a vector containing a maltose-binding protein (MBP) solubility tag and a PreScission protease cleavage site using restriction enzymes BamHI and NotI (Fermentas) and T4 DNA ligase (Invitrogen) following the manufacturers’ instructions. BamHI was substituted with NdeI for full-length Hsp90β. p50^Cdc37 was also subcloned into the pGEX6P-1 vector (GE Healthcare) using the same procedure as above to provide an N-terminal GST-tag for GST pull-down and ELISA experiments. The plasmids were transformed into E. coli BL21 Star (DE3) (Hsp90α and Hsp90β, Invitrogen), Tuner (DE3) (p50^Cdc37 modified pET28a, Novagen), or BL21 (DE3) (p50^Cdc37 pGEX6P-1, Stratagene) expression strains. Transformed cells were grown in LB broth at 37 °C until the OD600 reached 0.4, then the temperature was lowered to 16 °C, and cells were induced with 0.1 mM IPTG at OD600 = 0.5–0.7. Cultures were then grown for 20–24 h before harvesting by centrifugation (30 min at 30,000× g, 4 °C).
as §1

| IC50 (Hsp90-p50^Cdc37; ELISA, Hsp90-p50^Cdc37 (unphosphorylated)) [mM] | IC50 (ΔHsp90-p50^Cdc37) [mM] | IC50 ((p)Hsp90-p50^Cdc37) [mM] | effect on complex in GST pull-down ([1]; 1 mM nucleotide or 0.1 mM inhibitor, 15 min incubation, SDS-PAGE) | protection of the complex from ADP in GST pull-down competition ([1]; in the presence of ADP, 0.1 mM radicicol) | binding potential towards Hsp90β (hHsp90β-FL) | IC50 ((p)Hsp90-(p)p50^Cdc37) [mM] | Kd (hHsp90β-N) [µM] | Kd (hΔHsp90β) [nM] | Compound | inhibitory activity against the complex (Hsp90-p50^Cdc37; unphosphorylated or phosphorylated complex, in vitro) | Kd (yHsp82-FL) [nM] |
| --- | --- | --- | --- | --- | --- | --- | --- | --- | --- | --- | --- |
| > 1 | > 1 | > 1 | ineffective | had no effect | failed to display binding potential | > 1 |  |  | CC(=O)O[C@@H]1C[C@H]2C(C)(C)C(=O)C=C[C@]2(C)[C@H]2CC[C@@]3(C)[C@H](c4ccoc4)OC(=O)[C@H]4O[C@]43[C@@]21C [Gedunin] | did not show appreciable inhibitory activity; also recorded: did not affect the interaction of Hsp90 with p50^Cdc37 in vitro |  |
|  |  |  |  |  |  |  | 4.4 | 1100 | p50^Cdc37: human full-length co-chaperone protein p50^Cdc37 (residues 1-378), unphosphorylated |  | 1500 |
